Publication PMC9446893, “Zinc(II) Complex with Pyrazolone-Based Hydrazones is Strongly Effective against Trypanosoma brucei Which Causes African Sleeping Sickness” (Inorganic Chemistry, 2022)

Legend:
[1] = test system: T. brucei TC221; assay: Viability of T. brucei TC221 bloodstream forms (resazurin fluorescence); format: cell-based, Trypanosoma brucei
Method: (§1) The biological assays have been conducted in collaboration with Prof. Anders Hofer, Department of Medical Biochemistry and Biophysics, Umeå University, Umeå, Sweden. T. bruceiTC221 bloodstream forms and mouse embryonic fibroblast Balb/3T3 cells (ATCC no CCL-163) were cultivated in a vented plastic flask at 37 °C with 5% CO2. For T. brucei, the growth medium was Hirumi’s modified Iscoves medium (HMI)-9 supplemented with 10% (v/v) fetal bovine serum (Thermo Fischer Scientific Gibco, Waltham, MA, USA), whereas the Balb/3T3 cells were grown in Dulbecco’s modified Eagle’s medium (Sigma-Aldrich) supplemented with 10% (v/v) heat-inactivated fetal bovine serum, glutamine (0.584 g/L), and 10 mL/L 100 × penicillin–streptomycin (Gibco).[48]−[50] […] The plates were incubated for 48 h in the 5%CO2 incubator; then, 20 μL of 0.5 mM resazurine (Sigma-Aldrich) was added to each well, and the plates were incubated for an additional 24 h before the fluorescence was measured with the Synergy H4 microplate reader (excitation wavelength 530 or 540 nm and emission wavelength 590 nm).
(§2) The half-maximal efficacious concentration (EC50) values were calculated on the log inhibitor versus the response curves by non-linear regression using the GraphPad prism 5.2 software (GraphPad Software, Inc., La Jolla, CA, USA). […]

[2] = test system: Balb/3T3 cells; assay: Cytotoxicity on Balb/3T3 mammalian reference cells (resazurin fluorescence); format: cell-based; conditions: mouse embryonic fibroblasts, 48 h + 24 h with resazurin
Method: as §1, §2

Cc1ccc(C(=O)Nc2ccc(S(=O)(=O)O)c3cc(S(=O)(=O)O)cc(S(=O)(=O)O)c23)cc1NC(=O)c1cccc(NC(=O)Nc2cccc(C(=O)Nc3cc(C(=O)Nc4ccc(S(=O)(=O)O)c5cc(S(=O)(=O)O)cc(S(=O)(=O)O)c45)ccc3C)c2)c1 [suramin, reference compound]
SI (selectivity index) ([1]; T. brucei versus Balb/3T3 reference cells): >100 | EC50 ([1]; Trypanosoma brucei, bloodstream forms, 48 h + 24 h with resazurin): 0.023 ± 0.0008 µM | EC50 [2]: 43.9 ± 1.44 µM
